A short description of the data set: cn = amount concentration of the nth substance listed, in mol/dm3. The conditions noted are these: 101 kPa, Liquid, c1 = 2; for speed of sound: Linear variable-path acoustic interferometer; for mass density: Pycnometric method.

Where “and” joins values, the source holds several entries; their conditions need not be identical. Equal entries are not always repeated. Numbers after ± are expanded uncertainties.

The term speed of sound denotes how fast a sound wave travels through the sample. In general, mass density refers to mass per unit of volume.

As for `[Cl-].[K+]` [potassium chloride] + O, the speed of sound runs as follows: (298.15 K) 1595.2 ± 1.8 m/s; (303.15 K) 1605.9 ± 1.8 m/s; (308.15 K) 1610.2 ± 1.8 m/s; (313.15 K) 1616.4 ± 1.8 m/s; (318.15 K) 1621.4 ± 1.8 m/s; (323.15 K) 1626.5 ± 1.8 m/s. Further, the mass density is, setting by setting: (298.15 K) 1089.1 ± 0.4 kg/m3; (303.15 K) 1087.5 ± 0.4 kg/m3; (308.15 K) 1085.6 ± 0.4 kg/m3; (313.15 K) 1083.4 ± 0.4 kg/m3; (318.15 K) 1080.9 ± 0.4 kg/m3; (323.15 K) 1078.3 ± 0.5 kg/m3.

Turning to `O=[N+]([O-])[O-].[K+]` [potassium nitrate] + O, the speed of sound was 1562 ± 1.7 m/s (298.15 K); 1569.4 ± 1.8 m/s (303.15 K); 1575.8 ± 1.8 m/s and 1575 ± 1.8 m/s (308.15 K); 1580 ± 1.8 m/s (313.15 K); 1584.6 ± 1.8 m/s and 1584.5 ± 1.8 m/s (318.15 K); 1588.9 ± 1.8 m/s and 1588.8 ± 1.8 m/s (323.15 K). The mass density is 1122.9 ± 0.4 kg/m3 (298.15 K); 1120.6 ± 0.4 kg/m3 (303.15 K); 1118 ± 0.4 kg/m3 (308.15 K); 1115 ± 0.4 kg/m3 (313.15 K); 1111.8 ± 0.5 kg/m3 (318.15 K); 1108.2 ± 0.5 kg/m3 (323.15 K).

Values taken from the NIST ThermoML archive (doi:10.1016/j.tca.2008.10.023).
